Measurements taken from ChEMBL document CHEMBL1201862, “PubChem BioAssay data set” (2004).
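In this assay, cells in 96-well plates receive the compound at five concentrations for 48 hours. Endpoints are linearly interpolated between the surrounding concentrations. GI50 = concentration required for 50% inhibition of growth.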 The source made the active and inactive calls. No stated cut-off is given here; in the data, active = GI50 up to about 1.1 µM and inactive = higher.

What was measured:
Experiment in all cases: NCI-60 cell line screen, 48 h
HT-29 = system: HT-29
HCT-15 = system: HCT-15
MDA-N = system: MDA-N
M14 = system: M14
BT-549 = system: BT-549
786-0 = system: 786-0
SW-620 = system: SW-620
HCT-116 = system: HCT-116
HOP-62 = system: HOP-62
UACC-62 = system: UACC-62
UO-31 = system: UO-31
OVCAR-5 = system: OVCAR-5
SR = system: SR
MDA-MB-231 = system: MDA-MB-231
RXF 393 = system: RXF 393
SNB-75 = system: SNB-75
NCI-H226 = system: NCI-H226
MDA-MB-435 = system: MDA-MB-435
COLO 205 = system: COLO 205
SK-OV-3 = system: SK-OV-3

SMILES	GI50 (HT-29)	GI50 (HCT-15) [µM]	GI50 (MDA-N)	GI50 (M14)	GI50 (BT-549)	GI50 (786-0)	GI50 (SW-620)	GI50 (HCT-116)	GI50 (HOP-62)	GI50 (UACC-62)	GI50 (UO-31)	GI50 (OVCAR-5)	GI50 (SR)	GI50 (MDA-MB-231)	GI50 (RXF 393)	GI50 (SNB-75)	GI50 (NCI-H226)	GI50 (MDA-MB-435)	GI50 (COLO 205)	GI50 (SK-OV-3)
Cc1ccc(S(=O)(=O)OCC(=O)O)cc1	> 100 µM (inactive)	> 100	> 100 µM (inactive)	> 100 µM (inactive)	> 100 µM (inactive)	> 100 µM (inactive)	> 100 µM (inactive)	> 100 µM (inactive)	> 100 µM (inactive)	> 100 µM (inactive)	> 100 µM (inactive)	> 100 µM (inactive)	> 100 µM (inactive)	> 100 µM (inactive)	> 100 µM (inactive)					
CCOC(=O)Cc1c(C)c2ccc(OC(C)=O)c(OC(C)=O)c2oc1=O	29.6 µM (inactive)	18.7	> 100 µM (inactive)	17.9 µM (inactive)		27.7 µM (inactive)	20.7 µM (inactive)	34 µM (inactive)	40.6 µM (inactive)	32.7 µM (inactive)	13.9 µM (inactive)	53.6 µM (inactive)	14.3 µM (inactive)	37.1 µM (inactive)		19.4 µM (inactive)	32.7 µM (inactive)	28.1 µM (inactive)	40 µM (inactive)	> 100 µM (inactive)
COC(=O)c1c[nH]c2nc(N3CCOCC3)nn2c1=O	> 100 µM (inactive)	> 100		> 100 µM (inactive)		> 100 µM (inactive)	> 100 µM (inactive)	> 100 µM (inactive)	> 100 µM (inactive)	> 100 µM (inactive)	> 100 µM (inactive)	> 100 µM (inactive)	> 100 µM (inactive)		> 100 µM (inactive)	> 100 µM (inactive)	> 100 µM (inactive)		> 100 µM (inactive)	> 100 µM (inactive)
Cc1c(NC(=S)N/N=C\C(=N/NC(=S)Nc2c(C)n(C)n(-c3ccccc3)c2=O)c2ccccc2)c(=O)n(-c2ccccc2)n1C	> 100 µM (inactive)	> 100		> 100 µM (inactive)	> 100 µM (inactive)	> 100 µM (inactive)	> 100 µM (inactive)	> 100 µM (inactive)	> 100 µM (inactive)	> 100 µM (inactive)	> 100 µM (inactive)	> 100 µM (inactive)	> 100 µM (inactive)	> 100 µM (inactive)	> 100 µM (inactive)	> 100 µM (inactive)	> 100 µM (inactive)	> 100 µM (inactive)	> 100 µM (inactive)	> 100 µM (inactive)
C=C(C)C(=O)O[C@H]1CC2=CC(CC(C)=C[C@H]3OC(=O)C(=C)C13)OC2=O (some centres not stated)	17 µM (inactive)	10.8	24.4 µM (inactive)	29.4 µM (inactive)	16.3 µM (inactive)	9.08 µM (inactive)	11.8 µM (inactive)	10.8 µM (inactive)		17.4 µM (inactive)	> 10 µM (inactive)	33.7 µM (inactive)		25.2 µM (inactive)		> 100 µM (inactive)	> 100 µM (inactive)	29.3 µM (inactive)	14.5 µM (inactive)	
COC1=CC(=O)O/C1=C(\OC)C1OC1c1ccccc1 (configuration not stated)	> 100 µM (inactive)	> 100		> 100 µM (inactive)	> 100 µM (inactive)	> 100 µM (inactive)	> 100 µM (inactive)	> 100 µM (inactive)	> 100 µM (inactive)	> 100 µM (inactive)	> 100 µM (inactive)	> 100 µM (inactive)	13 µM (inactive)	74.3 µM (inactive)	> 100 µM (inactive)		> 100 µM (inactive)	> 100 µM (inactive)	> 100 µM (inactive)	> 100 µM (inactive)
COc1cc(CC2CC(c3ccc4c(c3)OCO4)OC2=O)cc(OC)c1OC (configuration not stated)	> 100 µM (inactive)	> 100		> 100 µM (inactive)		> 100 µM (inactive)	> 100 µM (inactive)	> 100 µM (inactive)	> 100 µM (inactive)	52.5 µM (inactive)	19.4 µM (inactive)	> 100 µM (inactive)	> 100 µM (inactive)	52.1 µM (inactive)	> 100 µM (inactive)	> 100 µM (inactive)	> 100 µM (inactive)	> 100 µM (inactive)	> 100 µM (inactive)	> 100 µM (inactive)
CN(C)CCCOC(=O)C(c1ccccc1)C1(O)CCSCC1 (configuration not stated)	> 100 µM (inactive)	> 100	> 100 µM (inactive)	> 100 µM (inactive)		> 100 µM (inactive)	32.3 µM (inactive)	> 100 µM (inactive)	> 100 µM (inactive)	> 100 µM (inactive)	> 100 µM (inactive)	> 100 µM (inactive)	> 100 µM (inactive)	> 100 µM (inactive)	> 100 µM (inactive)	87.1 µM (inactive)	79.1 µM (inactive)	> 100 µM (inactive)	> 100 µM (inactive)	> 100 µM (inactive)
COC(=O)C(=CNC(N)=O)C(=O)OC	> 100 µM (inactive)	> 100	> 100 µM (inactive)	> 100 µM (inactive)		> 100 µM (inactive)	> 100 µM (inactive)	> 100 µM (inactive)	> 100 µM (inactive)	> 100 µM (inactive)	> 100 µM (inactive)	> 100 µM (inactive)	> 100 µM (inactive)					> 100 µM (inactive)	> 100 µM (inactive)	
COc1nc(C(=O)NNC(=O)c2nc(OC)c3ccccc3c2-c2ccccc2)c(-c2ccccc2)c2ccccc12	> 100 µM (inactive)	> 100		> 100 µM (inactive)	> 100 µM (inactive)	> 100 µM (inactive)	> 100 µM (inactive)	> 100 µM (inactive)	> 100 µM (inactive)	> 100 µM (inactive)	> 100 µM (inactive)	> 100 µM (inactive)	0.113 µM (active)	> 100 µM (inactive)	> 100 µM (inactive)	96.6 µM (inactive)	> 100 µM (inactive)	> 100 µM (inactive)	> 100 µM (inactive)	> 100 µM (inactive)
N#C[C@H]1Nc2ccccc2[C@@H](O)C1O (some centres not stated)	> 100 µM (inactive)	> 100	> 100 µM (inactive)	> 100 µM (inactive)		> 100 µM (inactive)	> 100 µM (inactive)	> 100 µM (inactive)	> 100 µM (inactive)	> 100 µM (inactive)		> 100 µM (inactive)	> 100 µM (inactive)	> 100 µM (inactive)	> 100 µM (inactive)	> 100 µM (inactive)		> 100 µM (inactive)	> 100 µM (inactive)	> 100 µM (inactive)
N#C/C(=C\c1cc(Br)c(O)c(Br)c1)c1ccccn1	59 µM (inactive)	41.2	> 100 µM (inactive)	72.8 µM (inactive)	30.2 µM (inactive)	49.5 µM (inactive)	63.5 µM (inactive)	> 100 µM (inactive)	53.2 µM (inactive)	37.1 µM (inactive)	35.9 µM (inactive)	51.4 µM (inactive)	> 100 µM (inactive)		91.4 µM (inactive)	> 100 µM (inactive)	30.4 µM (inactive)		52.4 µM (inactive)	32.5 µM (inactive)
